Assay results from the NIST ThermoML archive (doi:10.1016/j.jct.2007.04.005).

Assay: xn = mol fraction of the nth substance listed
Settings: 308.15 K, Liquid

CCCCCCCCC [nonane] + C1CCCCC1
mass density [kg/m3]
Settings | x2 = 0 | x2 = 0.09303 | x2 = 0.2009 | x2 = 0.3051 | x2 = 0.417 | x2 = 0.512 | x2 = 0.5996 | x2 = 0.7052 | x2 = 0.7993 | x2 = 0.9039
8210 kPa | – | – | – | – | – | – | 738.1 | 744.9 | 752 | 761
10230 kPa | 714.1 | 717.1 | 721 | 725.2 | 730.1 | 734.7 | 739.8 | 746.6 | 753.6 | 762.7
11250 kPa | 714.9 | 717.9 | 721.8 | 726 | 730.9 | 735.5 | 740.6 | 747.4 | 754.4 | 763.5
12260 kPa | 715.7 | 718.7 | 722.6 | 726.8 | 731.7 | 736.3 | 741.4 | 748.2 | 755.3 | 764.4
14290 kPa | 717.2 | 720.3 | 724.2 | 728.3 | 733.3 | 737.9 | 743 | 749.8 | 756.9 | 766
16310 kPa | 718.7 | 721.8 | 725.7 | 729.9 | 734.8 | 739.4 | 744.5 | 751.4 | 758.4 | 767.5
18340 kPa | 720.2 | 723.2 | 727.2 | 731.4 | 736.3 | 740.9 | 746.1 | – | – | –
